Measurements reported in patent US10174007B2, “Substituted 3-azabicyclo[3.1.0]hexanes as ketohexokinase inhibitors” (Pfizer Inc., priority 2015, dated 2019).

Target: KHK-C (Homo sapiens (Human), UniProt P50053)
Test: Assay A: coupled-enzyme KHK absorbance assay, 10 nM KHK-C
Settings: not given

KHK-C, sequence (P50053 whole entry): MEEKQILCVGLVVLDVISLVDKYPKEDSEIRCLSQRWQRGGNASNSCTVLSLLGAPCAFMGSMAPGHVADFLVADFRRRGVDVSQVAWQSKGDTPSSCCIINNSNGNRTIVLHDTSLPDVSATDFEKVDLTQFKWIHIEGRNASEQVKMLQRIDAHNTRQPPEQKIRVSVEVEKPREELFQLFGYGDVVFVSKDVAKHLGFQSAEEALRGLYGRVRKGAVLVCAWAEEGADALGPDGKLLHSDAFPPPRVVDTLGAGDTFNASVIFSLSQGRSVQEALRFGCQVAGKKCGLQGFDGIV

| SMILES | IC50 |
| --- | --- |
| COC(=O)C[C@@H]1[C@H]2CN(c3cc(C(F)(F)F)nc(N4CC[C@@H]4C)n3)C[C@@H]12 [Example 3, Methyl [(1R,5S,6R)-3-{2-[(2S)-2-methylazetidin-1-yl]-6-(trifluoromethyl)pyrimidin-4-yl}-3-azabicyclo[3.1.0]hex-6-yl]acetate] | 3510 nM |

Same assay, conditions: read-out: IC50 (nM) Assay A 10 nM KHK-C; 10 nM KHK-C, 0.8 mM fructose, 0.2 mM ATP; avg of (#) runs

| IC50 | SMILES |
| --- | --- |
| 682 nM | C[C@H]1CCN1c1nc(N2C[C@@H]3[C@@H](CC(=O)NS(C)(=O)=O)[C@@H]3C2)cc(C(F)(F)F)n1 [Example 10, 2-[(1R,5S,6R)-3-{2-[(2S)-2-methylazetidin-1-yl]-6-(trifluoromethyl)pyrimidin-4-yl}-3-azabicyclo[3.1.0]hex-6-yl]-N-(methylsulfonyl)acetamide] |
| 33.9 nM | COc1c(N2C[C@@H]3[C@@H](CC(=O)O)[C@@H]3C2)nc(N2C[C@@H](O)[C@@H]2C)nc1C(F)(F)F [Example 13, [(1R,5S,6R)-3-{2-[(2S,3R)-3-hydroxy-2-methylazetidin-1-yl]-5-methoxy-6-(trifluoromethyl)pyrimidin-4-yl}-3-azabicyclo[3.1.0]hex-6-yl]acetic acid] |
| 170 nM | O=C(O)C[C@@H]1[C@H]2CN(c3cc(C(F)(F)F)nc(C4CCC4)n3)C[C@@H]12 [Example 6, {(1R,5S,6s)-3-[2-cyclobutyl-6-(trifluoromethyl)pyrimidin-4-yl]-3-azabicyclo[3.1.0]hex-6-yl}acetic acid] |
| 111 nM | C[C@H]1[C@H](O)CN1c1nc(N2C[C@@H]3[C@@H](CC(=O)O)[C@@H]3C2)c(C2CC2)c(C(F)(F)F)n1 [Example 7, [(1R,5S,6R)-3-{5-cyclopropyl-2-[(2S,3R)-3-hydroxy-2-methylazetidin-1-yl]-6-(trifluoromethyl)pyrimidin-4-yl}-3-azabicyclo[3.1.0]hex-6-yl]acetic acid] |

| SMILES | IC50 |
| --- | --- |
| C[C@H]1[C@H](O)CN1c1cc(N2C[C@@H]3[C@@H](CC(=O)O)[C@@H]3C2)c(Cl)c(C(C)(F)F)n1 [Example 12, [(1R,5S,6R)-3-{3-chloro-2-(1,1-difluoroethyl)-6-[(2S,3R)-3-hydroxy-2-methylazetidin-1-yl]pyridin-4-yl}-3-azabicyclo[3.1.0]hex-6-yl]acetic acid] | 289 nM |

Same assay, conditions: read-out: IC50 (nM) Assay A (Table 4); 10 nM KHK-C, 0.8 mM fructose, 0.2 mM ATP; avg of (#) runs

| IC50 | SMILES |
| --- | --- |
| 13.7 nM | C[C@@H]1N(c2nc(N3C[C@@H]4[C@@H](CC(=O)O)[C@@H]4C3)cc(C(F)F)c2C#N)C[C@@]1(C)O [Example 55, [(1R,5S,6R)-3-{5-cyano-4-(difluoromethyl)-6-[(2S,3R)-3-hydroxy-2,3-dimethylazetidin-1-yl]pyridin-2-yl}-3-azabicyclo[3.1.0]hex-6-yl]acetic acid] |
| 703 nM | C[C@@H]1N(c2nc(N3C[C@@H]4[C@@H](CC(=O)O)[C@@H]4C3)cc(C(F)(F)F)n2)C[C@@]1(C)O [Example 22, [(1R,5S,6R)-3-{2-[(2S,3R)-3-hydroxy-2,3-dimethylazetidin-1-yl]-6-(trifluoromethyl)pyrimidin-4-yl}-3-azabicyclo[3.1.0]hex-6-yl]acetic acid] |
| 51.4 nM | Cc1c(N2C[C@@H]3[C@@H](CC(=O)O)[C@@H]3C2)nc(N2CC[C@@H]2C)nc1C(C)(F)F [Example 44, [(1R,5S,6R)-3-{6-(1,1-difluoroethyl)-5-methyl-2-[(2S)-2-methylazetidin-1-yl]pyrimidin-4-yl}-3-azabicyclo[3.1.0]hex-6-yl]acetic acid] |
| 24.8 nM | CC1CCCCN1c1nc(N2C[C@@H]3[C@@H](CC(=O)O)[C@@H]3C2)cc(C(F)(F)F)n1 (stereo partly drawn) [Example 39, {(1R,5S,6s)-3-[2-(2-methylpiperidin-1-yl)-6-(trifluoromethyl)pyrimidin-4-yl]-3-azabicyclo[3.1.0]hex-6-yl}acetic acid] |
| 19.1 nM | C[C@H]1[C@H](O)CN1c1nc(C(F)F)c(Cl)c(N2C[C@@H]3[C@@H](CC(=O)O)[C@@H]3C2)n1 [Example 15, [(1R,5S,6R)-3-{5-chloro-6-(difluoromethyl)-2-[(2S,3R)-3-hydroxy-2-methylazetidin-1-yl]pyrimidin-4-yl}-3-azabicyclo[3.1.0]hex-6-yl]acetic acid] |
| 111 nM | CCc1c(C(F)F)nc(N2C[C@@H](O)[C@@H]2C)nc1N1C[C@@H]2[C@@H](CC(=O)O)[C@@H]2C1 [Example 41, [(1R,5S,6R)-3-{6-(difluoromethyl)-5-ethyl-2-[(2S,3R)-3-hydroxy-2-methylazetidin-1-yl]pyrimidin-4-yl}-3-azabicyclo[3.1.0]hex-6-yl]acetic acid] |
| 58.3 nM | N#Cc1c(C(F)F)cc(N2C[C@@H]3[C@@H](CC(=O)O)[C@@H]3C2)nc1N1CCCC1 [Example 37, {(1R,5S,6s)-3-[5-cyano-4-(difluoromethyl)-6-(pyrrolidin-1-yl)pyridin-2-yl]-3-azabicyclo[3.1.0]hex-6-yl}acetic acid] |
| 103 nM | C[C@@H]1N(c2nc(C(F)F)c(Cl)c(N3C[C@@H]4[C@@H](CC(=O)O)[C@@H]4C3)n2)C[C@@]1(C)O [Example 36, [(1R,5S,6R)-3-{5-chloro-6-(difluoromethyl)-2-[(2S,3R)-3-hydroxy-2,3-dimethylazetidin-1-yl]pyrimidin-4-yl}-3-azabicyclo[3.1.0]hex-6-yl]acetic acid] |
| 152 nM | C[C@H]1[C@H](O)CN1c1nc(C(F)F)cc(N2C[C@@H]3[C@@H](CC(=O)O)[C@@H]3C2)n1 [Example 14, [(1R,5S,6R)-3-{6-(difluoromethyl)-2-[(2S,3R)-3-hydroxy-2-methylazetidin-1-yl]pyrimidin-4-yl}-3-azabicyclo[3.1.0]hex-6-yl]acetic acid] |
| 6.4 nM | C[C@H]1[C@H](O)CN1c1nc(N2C[C@@H]3[C@@H](CC(=O)O)[C@@H]3C2)c(Cl)c(C(F)(F)F)n1 [Example 16, [(1R,5S,6R)-3-{5-chloro-2-[(2S,3R)-3-hydroxy-2-methylazetidin-1-yl]-6-(trifluoromethyl)pyrimidin-4-yl}-3-azabicyclo[3.1.0]hex-6-yl]acetic acid] |

Continued, molecule first:

| SMILES | IC50 |
| --- | --- |
| C[C@H]1[C@H](O)CN1c1nc(N2C[C@@H]3[C@@H](CC(=O)O)[C@@H]3C2)c(C#N)c(C(F)(F)F)n1 [Example 53, [(1R,5S,6R)-3-{5-cyano-2-[(2S,3R)-3-hydroxy-2-methylazetidin-1-yl]-6-(trifluoromethyl)pyrimidin-4-yl}-3-azabicyclo[3.1.0]hex-6-yl]acetic acid] | 21 nM |
| C[C@H]1[C@H](O)CN1c1nc(N2C[C@@H]3[C@@H](CC(=O)O)[C@@H]3C2)c(Cl)c(C(C)(F)F)n1 [Example 18, [(1R,5S,6R)-3-{5-chloro-6-(1,1-difluoroethyl)-2-[(2S,3R)-3-hydroxy-2-methylazetidin-1-yl]pyrimidin-4-yl}-3-azabicyclo[3.1.0]hex-6-yl]acetic acid] | 16.7 nM |
| Cc1c(C(F)F)nc(N2C[C@@](C)(O)[C@@H]2C)nc1N1C[C@@H]2[C@@H](CC(=O)O)[C@@H]2C1 [Example 25, [(1R,5S,6R)-3-{6-(difluoromethyl)-2-[(2S,3R)-3-hydroxy-2,3-dimethylazetidin-1-yl]-5-methylpyrimidin-4-yl}-3-azabicyclo[3.1.0]hex-6-yl]acetic acid] | 259 nM |
| N#Cc1c(C(F)F)cc(N2C[C@@H]3[C@@H](CC(=O)O)[C@@H]3C2)nc1NC1CCC1 [Example 51, {(1R,5S,6s)-3-[5-cyano-6-(cyclobutylamino)-4-(difluoromethyl)pyridin-2-yl]-3-azabicyclo[3.1.0]hex-6-yl}acetic acid] | 150 nM |
| C[C@H]1[C@H](O)CN1c1nc(N2C[C@@H]3[C@@H](CC(=O)O)[C@@H]3C2)nc(C(F)(F)F)n1 [Example 30, [(1R,5S,6R)-3-{4-[(2S,3R)-3-hydroxy-2-methylazetidin-1-yl]-6-(trifluoromethyl)-1,3,5-triazin-2-yl}-3-azabicyclo[3.1.0]hex-6-yl]acetic acid] | 509 nM |
| Cc1c(C(F)F)nc(N2C[C@@H](O)[C@@H]2C)nc1N1C[C@@H]2[C@@H](CC(=O)O)[C@@H]2C1 [Example 20, [(1R,5S,6R)-3-{6-(difluoromethyl)-2-[(2S,3R)-3-hydroxy-2-methylazetidin-1-yl]-5-methylpyrimidin-4-yl}-3-azabicyclo[3.1.0]hex-6-yl]acetic acid] | 33.4 nM |
| O=C(O)C[C@@H]1[C@H]2CN(c3cc(C(F)(F)F)nc(N4CCC4)n3)C[C@@H]12 [Example 47, {(1R,5S,6s)-3-[2-(azetidin-1-yl)-6-(trifluoromethyl)pyrimidin-4-yl]-3-azabicyclo[3.1.0]hex-6-yl}acetic acid] | 619 nM |
| C[C@H]1[C@H](O)CN1c1nc(N2C[C@@H]3[C@@H](CC(=O)O)[C@@H]3C2)cc(C(C)(F)F)n1 [Example 17, [(1R,5S,6R)-3-{6-(1,1-difluoroethyl)-2-[(2S,3R)-3-hydroxy-2-methylazetidin-1-yl]pyrimidin-4-yl}-3-azabicyclo[3.1.0]hex-6-yl]acetic acid] | 131 nM |
| CC1CCCN1c1nc(N2C[C@@H]3[C@@H](CC(=O)O)[C@@H]3C2)cc(C(F)F)c1C#N (stereo partly drawn) [Example 38, {(1R,5S,6s)-3-[5-cyano-4-(difluoromethyl)-6-(2-methylpyrrolidin-1-yl)pyridin-2-yl]-3-azabicyclo[3.1.0]hex-6-yl}acetic acid] | 25.3 nM |
| C[C@H]1[C@H](O)CN1c1nc(N2C[C@@H]3[C@@H](CC(=O)O)[C@@H]3C2)nc(C(F)(F)F)c1C#N [Example 54, [(1R,5S,6R)-3-{5-cyano-4-[(2S,3R)-3-hydroxy-2-methylazetidin-1-yl]-6-(trifluoromethyl)pyrimidin-2-yl}-3-azabicyclo[3.1.0]hex-6-yl]acetic acid] | 19 nM |
| C[C@@H]1N(c2nc(N3C[C@@H]4[C@H](C3)[C@H]4CS(C)(=O)=O)c(Cl)c(C(F)(F)F)n2)C[C@@]1(C)O [Example 48, (2S,3R)-1-[5-chloro-4-{(1R,5S,6S)-6-[(methylsulfonyl)methyl]-3-azabicyclo[3.1.0]hex-3-yl}-6-(trifluoromethyl)pyrimidin-2-yl]-2,3-dimethylazetidin-3-ol] | 1360 nM |
| C[C@H]1C[C@H](O)CN1c1nc(N2C[C@@H]3[C@@H](CC(=O)O)[C@@H]3C2)c(Cl)c(C(F)(F)F)n1 [Example 35, [(1R,5S,6R)-3-{5-chloro-2-[(2S,4S)-4-hydroxy-2-methylpyrrolidin-1-yl]-6-(trifluoromethyl)pyrimidin-4-yl}-3-azabicyclo[3.1.0]hex-6-yl]acetic acid] | 188 nM |
